The results in this text go back to US12187816B2, “Macrocyclic compounds and methods of use thereof” (Genentech, Inc., priority 2020, dated 2025).

Starred links: 1 amine or outer side, 2 acyl side, 3 side chain; linkers in the order of their positions; H or OH if unused. Positions of bridges follow the written chain, without caps; N, C: chain ends. Non-standard residues stand in square brackets, D forms with d. Residues, ends and D or L forms follow the SMILES beside them. *: point of attachment. JQ1acid = Cc1sc2c(c1C)C(c1ccc(Cl)cc1)=N[C@@H](CC(=O)*)c1nnc(C)n1-2; dPhg(4-(4-Me-thiazol-5-yl)) = Cc1ncsc1-c1ccc([C@@H](N)C(=O)O)cc1; Phg(4-(4-Me-thiazol-5-yl)) = Cc1ncsc1-c1ccc([C@H](N)C(=O)O)cc1; X3 = Cc1ncsc1-c1ccc(C(N[*:1])C(=O)[*:2])cc1; Hyp = O=C(O)[C@@H]1C[C@@H](O)CN1; Tle = CC(C)(C)[C@H](N)C(=O)O; d(hCys) = N[C@H](CCS)C(=O)O; dDab = NCC[C@@H](N)C(=O)O; dNMeC = CN[C@H](CS)C(=O)O; dDap = NC[C@@H](N)C(=O)O; Dap = NC[C@H](N)C(=O)O; AEA = NCCOCC(=O)O; βAla = NCCC(=O)O Some results are limits rather than exact numbers.

The target in this assay is T1, BRD4 (Homo sapiens, UniProt O60885).
T1 construct: Mean 488 intensity of BRD4 quantitated in nuclear region; endogenous in cells; host or cells: EoL-1 eosinophilic leukemia cells
Nature of the assay: BRD4 degradation assay in EOL1 cells (immunofluorescence imaging). The format is cell-based. To be noted: EoL-1 eosinophilic leukemia cells, 4 hours treatment, nuclear BRD4 immunofluorescence. The method, then:
BRD4 Degradation Assay in EOL1 Cells
EoL-1 eosinophilic leukemia cells were seeded on day 1 at a density of 45,000 cells per well in Corning PureCoat Amine Microplates, (Corning #354719) in 45 μL/well of assay media (RPMI, 10% FBS, containing L-glutamine). After cells attached to cell plate, compounds were serially diluted ⅓ in dimethylsulfoxide (DMSO) to create 20-point dilutions across a 384 well v-bottom polypropylene microplate (Greiner #781091). 2 μL of each sample from the serial dilution was transferred to 98 μL of assay media as an intermediate dilution. 5 μL of each well of the intermediate dilution was added to 45 μL of cell plate. Columns 1, 2, 23 and 24 were treated with only 0.2% final concentration of DMSO for data normalization as “neutral controls”. After compound treatment, cell plates were stored in a 37° C. incubator for 4 hours. After 4 hours cells were fixed in 3.7% w/v final concentration of paraformaldehyde by addition of 15 μL of 16% w/v paraformaldehyde (Electron Microscopy Sciences #15710-S) directly to the 50 μL media and compound in the cell plate. Cell plate was incubated at RT for 20 minutes. Well contents were aspirated and washed with 100 μL/well PBS 3 times. 50 ul/well of phosphate Buffered Saline (PBS) (pH 7.5) containing 0.5% w/v bovine serum albumen, 0.5% w/v Triton X-100 (Block/Permeabilization Buffer) was added to each well. Samples were incubated for 20 minutes. Well contents were aspirated and washed 3 times with 100 μL/well of PBS. PBS was aspirated from the well and 50 μL per well of EoL-1 Block Buffer (PBS containing 10% Normal Goat Serum (AbCam #ab7481)) was added to each well. Plates were incubated at room temperature for 30 minutes. Block buffer was decanted from the wells. Immunofluorescence staining of BRD4 was carried out by diluting mAB Anti-BRD4 [EPR5150] antibody (Abcam 128874) 1:500 into Antibody Dilution Buffer (PBS, 2% Normal Goat Serum). 25 μL per well of BRD4 antibody diluted in buffer was added and incubated overnight at 4° C.
On day-2 samples were washed 3 times with 100 μL/well of PBS. 25 μL/well of secondary antibody solution (Goat Anti-Rabbit IgG, DyLight 488 Conjugated Highly Cross-adsorbed Thermo Fisher #35553) and Hoechst 33342 1 μg/ml diluted in Antibody Dilution Buffer) were dispensed into each well. Hoechst 33342 only was added to bottom 3 columns for data normalization as “inhibitor controls”. Samples were incubated for 2 hours at room temperature. Samples were washed 3 times with 100 μL PBS. Quantitative fluorescence imaging of BRD4 was carried out using an Opera Phenix High-Content Screening System. Fluorescent images of the samples were captured using 488 nm and 405 nm channels. Hoechst channel was used to identify nuclear region. Mean 488 intensity of BRD4 quantitated in nuclear region. Data analysis was carried out using Genedata Screener, with DMSO and no primary antibody control treated samples being used to define the 0% and 100% changes in BRD4. The dose-response log(inhibitor) vs. response used to define the inflexion point of curve (DC50) and the plateau of the maximal effect.
The individual topological polar surface area (TPSA) and cLogP values were calculated using Chemdraw v. 15.1 (PerkinElmer). Half life of the ternary VHL/BD1 and VHL/BD2 complexes, DC50 of BRD4 in EOL1 cells, topological polar surface area of a molecule (TPSA) and c log P (lipophilicity) for compounds described herein are provided in Table 3.
By DC50 is commonly meant the concentration at which degradation of the target reaches its halfway point. Read a low DC50 as degradation at low concentration. Consider `Cc1ncsc1-c1ccc([C@H]2NC(=O)[C@@H]3C[C@@H](O)CN3C(=O)[C@H](C(C)(C)C)NC(=O)CSC[C@H](C(N)=O)NC(=O)[C@@H](CNC(=O)C[C@@H]3N=C(c4ccc(Cl)cc4)c4c(sc(C)c4C)-n4c(C)nnc43)NC(=O)CNC2=O)cc1` [Compound 1] ({CH2CO}-[Tle][Hyp][dPhg(4-(4-Me-thiazol-5-yl))]G[dDap](JQ1acid)[dC]-NH2; thioether N-6), for which the DC50 was less than 1 µM.

The compound `Cc1ncsc1-c1ccc([C@@H]2NC(=O)[C@@H]3C[C@@H](O)CN3C(=O)[C@H](C(C)(C)C)NC(=O)CSC[C@H](C(N)=O)NC(=O)[C@@H](CNC(=O)C[C@@H]3N=C(c4ccc(Cl)cc4)c4c(sc(C)c4C)-n4c(C)nnc43)NC(=O)CNC2=O)cc1` [Compound 2] ({CH2CO}-[Tle][Hyp][Phg(4-(4-Me-thiazol-5-yl))]G[dDap](JQ1acid)[dC]-NH2; thioether N-6) returned a DC50 greater than 20 µM.

`Cc1ncsc1-c1ccc(C2NC(=O)[C@@H]3C[C@@H](O)CN3C(=O)[C@H](C(C)(C)C)NC(=O)CSCC[C@H](C(N)=O)NC(=O)[C@@H](CNC(=O)C[C@@H]3N=C(c4ccc(Cl)cc4)c4c(sc(C)c4C)-n4c(C)nnc43)NC(=O)CNC2=O)cc1` (some centres unmarked) [Compound 3] ({CH2CO}-[Tle][Hyp][X3]G[dDap](JQ1acid)[d(hCys)]-NH2; thioether N-6) returned a DC50 of less than 1 µM.

On to `Cc1ncsc1-c1ccc(C2NC(=O)[C@@H]3C[C@@H](O)CN3C(=O)[C@H](C(C)(C)C)NC(=O)CSC[C@H](C(N)=O)NC(=O)[C@@H](CNC(=O)C[C@@H]3N=C(c4ccc(Cl)cc4)c4c(sc(C)c4C)-n4c(C)nnc43)NC(=O)CCNC2=O)cc1` (some centres unmarked) [Compound 4] ({CH2CO}-[Tle][Hyp][X3][βAla][dDap](JQ1acid)[dC]-NH2; thioether N-6), for which the DC50 was less than 20 µM.

In the case of `Cc1ncsc1-c1ccc([C@H]2NC(=O)[C@@H]3C[C@@H](O)CN3C(=O)[C@H](C(C)(C)C)NC(=O)CSCC[C@H](C(N)=O)NC(=O)[C@@H](CNC(=O)C[C@@H]3N=C(c4ccc(Cl)cc4)c4c(sc(C)c4C)-n4c(C)nnc43)NC(=O)CCNC2=O)cc1` [Compound 5] ({CH2CO}-[Tle][Hyp][dPhg(4-(4-Me-thiazol-5-yl))][βAla][dDap](JQ1acid)[d(hCys)]-NH2; thioether N-6), the half-maximal degradation concentration (DC50) was less than 20 µM.

`Cc1ncsc1-c1ccc([C@H]2NC(=O)[C@@H]3C[C@@H](O)CN3C(=O)[C@H](C(C)(C)C)NC(=O)CNC(=O)[C@H](CCC(N)=O)NC(=O)[C@@H](CNC(=O)C[C@@H]3N=C(c4ccc(Cl)cc4)c4c(sc(C)c4C)-n4c(C)nnc43)NC(=O)CNC2=O)cc1` [Compound 6] (cyclo(G[Tle][Hyp][dPhg(4-(4-Me-thiazol-5-yl))]G[dDap](JQ1acid)Q)): the 50% degradation concentration (DC50) is less than 20 µM.

In turn, `Cc1ncsc1-c1ccc([C@@H]2NC(=O)[C@@H]3C[C@@H](O)CN3C(=O)[C@H](C(C)(C)C)NC(=O)CNC(=O)[C@H](CCC(N)=O)NC(=O)[C@@H](CNC(=O)C[C@@H]3N=C(c4ccc(Cl)cc4)c4c(sc(C)c4C)-n4c(C)nnc43)NC(=O)CNC2=O)cc1` [Compound 7] (cyclo(G[Tle][Hyp][Phg(4-(4-Me-thiazol-5-yl))]G[dDap](JQ1acid)Q)) yielded a half-maximal degradation concentration (DC50) of less than 20 µM.

Turning to `Cc1sc2c(c1C)C(c1ccc(Cl)cc1)=N[C@@H](CC(=O)NC[C@H]1NC(=O)CNC(=O)[C@@H](C)NC(=O)[C@@H]3C[C@@H](O)CN3C(=O)[C@H](C(C)(C)C)NC(=O)CSC[C@H](C(N)=O)NC1=O)c1nnc(C)n1-2` [Compound 8] ({CH2CO}-[Tle][Hyp][dA]G[dDap](JQ1acid)[dC]-NH2; thioether N-6), the 50% degradation concentration (DC50) was less than 20 µM.

In turn, `Cc1ncsc1-c1ccc([C@H]2NC(=O)[C@@H]3C[C@@H](O)CN3C(=O)[C@H](C(C)(C)C)NC(=O)CSC[C@H](C(N)=O)NC(=O)[C@@H](CCNC(=O)C[C@@H]3N=C(c4ccc(Cl)cc4)c4c(sc(C)c4C)-n4c(C)nnc43)NC(=O)CNC2=O)cc1` [Compound 9] ({CH2CO}-[Tle][Hyp][dPhg(4-(4-Me-thiazol-5-yl))]G[dDab](JQ1acid)[dC]-NH2; thioether N-6) had a DC50 greater than 20 µM.

The compound `Cc1ncsc1-c1ccc([C@@H]2NC(=O)[C@@H]3C[C@@H](O)CN3C(=O)[C@H](C(C)(C)C)NC(=O)CSC[C@H](C(N)=O)NC(=O)[C@@H](CCNC(=O)C[C@@H]3N=C(c4ccc(Cl)cc4)c4c(sc(C)c4C)-n4c(C)nnc43)NC(=O)CNC2=O)cc1` [Compound 10] ({CH2CO}-[Tle][Hyp][Phg(4-(4-Me-thiazol-5-yl))]G[dDab](JQ1acid)[dC]-NH2; thioether N-6) returned a DC50 greater than 20 µM.

Take `Cc1ncsc1-c1ccc([C@H]2NC(=O)[C@@H]3C[C@@H](O)CN3C(=O)[C@H](C(C)(C)C)NC(=O)CSC[C@H](C(=O)NCC(=O)NCC(=O)NCC(N)=O)NC(=O)[C@@H](CNC(=O)C[C@@H]3N=C(c4ccc(Cl)cc4)c4c(sc(C)c4C)-n4c(C)nnc43)NC(=O)CNC2=O)cc1` [Compound 11] ({CH2CO}-[Tle][Hyp][dPhg(4-(4-Me-thiazol-5-yl))]G[dDap](JQ1acid)[dC]GGG-NH2; thioether N-6): the half-maximal degradation concentration (DC50) is greater than 20 µM.

In the case of `Cc1ncsc1-c1ccc([C@H]2NC(=O)[C@@H]3C[C@@H](O)CN3C(=O)[C@H](C(C)(C)C)NC(=O)CSC[C@H](C(N)=O)NC(=O)[C@@H](CNC(=O)C[C@@H]3N=C(c4ccc(Cl)cc4)c4c(sc(C)c4C)-n4c(C)nnc43)NC(=O)[C@H](C)NC2=O)cc1` [Compound 12] ({CH2CO}-[Tle][Hyp][dPhg(4-(4-Me-thiazol-5-yl))]A[dDap](JQ1acid)[dC]-NH2; thioether N-6), the half-maximal degradation concentration (DC50) is greater than 20 µM.

In turn, `Cc1ncsc1-c1ccc([C@H]2NC(=O)[C@@H]3C[C@@H](O)CN3C(=O)[C@H](C(C)(C)C)NC(=O)CSC[C@H](C(N)=O)NC(=O)[C@H](CNC(=O)C[C@@H]3N=C(c4ccc(Cl)cc4)c4c(sc(C)c4C)-n4c(C)nnc43)NC(=O)CNC2=O)cc1` [Compound 13] ({CH2CO}-[Tle][Hyp][dPhg(4-(4-Me-thiazol-5-yl))]G[Dap](JQ1acid)[dC]-NH2; thioether N-6) displayed a 50% degradation concentration (DC50) greater than 20 µM.

In turn, `Cc1ncsc1-c1ccc([C@@H]2NC(=O)[C@@H]3C[C@@H](O)CN3C(=O)[C@H](C(C)(C)C)NC(=O)CSC[C@H](C(N)=O)NC(=O)[C@H](CNC(=O)C[C@@H]3N=C(c4ccc(Cl)cc4)c4c(sc(C)c4C)-n4c(C)nnc43)NC(=O)CNC2=O)cc1` [Compound 14] ({CH2CO}-[Tle][Hyp][Phg(4-(4-Me-thiazol-5-yl))]G[Dap](JQ1acid)[dC]-NH2; thioether N-6) came in with a DC50 greater than 20 µM.

Compound `Cc1ncsc1-c1ccc([C@H]2NC(=O)[C@@H]3C[C@@H](O)CN3C(=O)[C@H](C(C)(C)C)NC(=O)CSC[C@H](C(N)=O)N(C)C(=O)[C@@H](CNC(=O)C[C@@H]3N=C(c4ccc(Cl)cc4)c4c(sc(C)c4C)-n4c(C)nnc43)NC(=O)CNC2=O)cc1` [Compound 15] ({CH2CO}-[Tle][Hyp][dPhg(4-(4-Me-thiazol-5-yl))]G[dDap](JQ1acid)[dNMeC]-NH2; thioether N-6) yielded a DC50 of less than 20 µM.

In turn, `Cc1ncsc1-c1ccc([C@H]2NC(=O)[C@@H]3C[C@@H](O)CN3C(=O)[C@H](C(C)(C)C)NC(=O)COCCNC(=O)[C@@H](CNC(=O)C[C@@H]3N=C(c4ccc(Cl)cc4)c4c(sc(C)c4C)-n4c(C)nnc43)NC(=O)CNC2=O)cc1` [Compound 16] (cyclo([AEA][Tle][Hyp][dPhg(4-(4-Me-thiazol-5-yl))]G[dDap](JQ1acid))) showed a DC50 of less than 1 µM.

With `Cc1ncsc1-c1ccc([C@@H]2NC(=O)[C@@H]3C[C@@H](O)CN3C(=O)[C@H](C(C)(C)C)NC(=O)COCCNC(=O)[C@@H](CNC(=O)C[C@@H]3N=C(c4ccc(Cl)cc4)c4c(sc(C)c4C)-n4c(C)nnc43)NC(=O)CNC2=O)cc1` [Compound 17] (cyclo([AEA][Tle][Hyp][Phg(4-(4-Me-thiazol-5-yl))]G[dDap](JQ1acid))), the DC50 is less than 1 µM.
